Experimental data from article PMC8710297, “Identification of potent SENP1 inhibitors that inactivate SENP1/JAK2/STAT signaling pathway and overcome platinum drug resistance in ovarian cancer” (Clinical and Translational Medicine, 2021).

Target: T1, SENP1(C603A) (Homo sapiens, UniProt Q9P0U3, C603A)
T1 construct: GST; made in house
T1 sequence (Q9P0U3 1-644 C603A): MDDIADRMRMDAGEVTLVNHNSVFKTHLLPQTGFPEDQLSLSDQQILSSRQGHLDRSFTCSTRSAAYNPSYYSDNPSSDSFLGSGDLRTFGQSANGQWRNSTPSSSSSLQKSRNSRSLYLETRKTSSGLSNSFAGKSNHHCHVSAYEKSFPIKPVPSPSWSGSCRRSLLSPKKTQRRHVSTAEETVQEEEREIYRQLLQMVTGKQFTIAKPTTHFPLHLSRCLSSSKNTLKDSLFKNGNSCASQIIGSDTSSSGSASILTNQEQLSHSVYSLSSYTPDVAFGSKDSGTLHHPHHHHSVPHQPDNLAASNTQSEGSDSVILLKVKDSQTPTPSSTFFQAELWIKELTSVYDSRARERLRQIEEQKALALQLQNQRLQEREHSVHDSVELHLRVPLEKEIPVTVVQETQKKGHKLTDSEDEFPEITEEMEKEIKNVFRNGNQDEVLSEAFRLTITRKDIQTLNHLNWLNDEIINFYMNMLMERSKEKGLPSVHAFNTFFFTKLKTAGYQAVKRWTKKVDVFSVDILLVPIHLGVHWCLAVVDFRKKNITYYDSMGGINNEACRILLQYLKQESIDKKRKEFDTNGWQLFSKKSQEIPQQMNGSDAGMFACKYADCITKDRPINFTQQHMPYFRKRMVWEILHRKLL
Assay: UPLC-MS/MS of UA associated with IPs of SENP1 proteins
Assay type: binding
Conditions: mass-spec and surface plasmon resonance analyses
Method: FIGURE 2 UA directly interacts with Sentrin‐specific protease 1 (SENP1). (A) Cellular thermal shift assay to examine the interaction of UA with SENP1. IGROV1 CR cells pretreated with MG132 (10 μM, 1 h) were incubated with DMSO or UA for 4 h before being shifted to indicated temperatures. SENP1 stability was analyzed by using Western blot against SENP1 antibody. Right panel, quantification of non‐denatured SENP1 fraction shown in the left panel. (B) Cell‐free thermal shift assay to examine interactions of UA with SENP1. Purified SENP1 proteins were incubated with DMSO or UA for 4 h before being shifted to the indicated temperatures. SENP1 stability was analyzed by using Western blot against SENP1 antibody. Right panel, quantification of non‐denatured SENP1 fraction shown in the left panel. […] Stability of SENP1(C603A) was analyzed by using Western blot against SENP1 antibody. […] Left; Ultra‐high performance liquid‐chromatography‐MS/MS analyses of associated UA in indicated samples, right; quantification of data shown in left (the binding affinity of UA with SENP1‐C603A was normalized as 1). […]
Cell viability was detected using Sulforhodamine B (SRB) assay as described previously (3).
Absorbance at 51 0 nm was detected using a SpectraMax Re a d e r (Molecular Devices) and […]

C[C@H]1[C@H](C)CC[C@]2(C(=O)O)CC[C@]3(C)C(=CC[C@@H]4[C@@]5(C)CC[C@H](O)C(C)(C)[C@@H]5CC[C@]43C)[C@H]12 [UA, ursolic acid, reference compound]
binding of UA to SENP1(C603A) compared to SENP1: decreased binding affinities
